Values of other authors as cited in patent US12292444B2, “Methods and compositions related to modified green fluorescent protein (GFP) with an embedded foreign peptide” (University of South Florida, priority 2020, dated 2025).

Tested on: Gram-negative bacteria, such as Escherichia coli, Pseudomonas aeruginosa, and Salmonella typhimurium
Conditions: Wu 1999

With “Bactenecin: Antimicrobial peptide synthesized by neutrophils, used as substitute of the central α-helix in GFP (RLCRIVSYGVIRVCRR; listed as Aequorea victoria)” as the substance, how does the “activity against Gram-negative bacteria” value read?
Its value is “has an activity”.
